Assay results published in the supplement of paper PMC10627819.

How the values were obtained:
S. pneumoniae D39V [1] = assay: fitness (endpoint OD595 vs no drug) (fraction); higher = more growth
Outline: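 At 37 °C, bacteria in TSB, LB Lennox or CY were grown in 384-well plates from a starting OD595 of 0.01. OD595 was measured every 30 min for 14 h, with the first reading used as background. Fitness is the optical density at the switch to stationary phase as a fraction of the robust mean of no-drug control wells, capped at 1.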

B. subtilis 168 = assay: Bliss interaction score (quartile over a dose matrix) (fitness difference); higher = more antagonism (negative = synergy)
Outline: (§1)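 The Bliss score was calculated by subtracting the expected fitness, the product of single-drug values, from the observed fitness. OD595 at entry into stationary phase, over the plate's robust no-drug mean and capped at 1, served as the fitness readout. Single-drug values were inferred from combination data, and scores are summarised by quartiles across technical, biological and donor/recipient replicates.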

S. aureus DSM 20231 = assay: as above
Outline: as §1

S. aureus Newman = assay: as above
Outline: as §1

S. pneumoniae D39V [2] = assay: as above
Outline: as §1
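Throughout, for Bliss interaction score (quartile over a dose matrix): first quartile when negative (synergy) and third quartile when positive (antagonism).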

C[C@H]1c2cccc(O)c2C(=O)C2=C(O)[C@]3(O)C(=O)C(C(N)=O)=C(O)[C@@H](N(C)C)[C@@H]3[C@@H](O)[C@@H]21 [Doxycycline] + C[C@@H](O)[C@H]1C(=O)N2C(C(=O)O)=C(SCCNC=N)C[C@H]12 [Imipenem]
fitness, S. pneumoniae D39V [1], one replicate
Conditions	first compound 0.003875 µg/mL	first compound 0.00775 µg/mL	first compound 0.031 µg/mL	first compound 0.062 µg/mL
partner 0.005 µg/mL	≥ 1	0.998	0.87	0.739
partner 0.01 µg/mL	≥ 1	0.973	0.808	0.74
partner 0.02 µg/mL	≥ 1	0.993	0.834	0.706

fitness, S. pneumoniae D39V [1]
Conditions	partner 0.005 µg/mL	partner 0.0065 µg/mL	partner 0.01 µg/mL	partner 0.013 µg/mL	partner 0.02 µg/mL	partner 0.026 µg/mL
first compound 0.0155 µg/mL	0.989	0.886	0.931	0.845	0.928	0.746
first compound 0.031 µg/mL	–	0.825	–	0.826	–	0.789
first compound 0.062 µg/mL	–	0.753	–	0.78	–	0.759

Conditions	Bliss interaction score
B. subtilis 168	0.222
S. aureus DSM 20231	-0.0172
S. aureus Newman	0.0141
S. pneumoniae D39V [2]	-0.0283

C[C@H]1c2cccc(O)c2C(=O)C2=C(O)[C@]3(O)C(=O)C(C(N)=O)=C(O)[C@@H](N(C)C)[C@@H]3[C@@H](O)[C@@H]21 [Doxycycline] + Clc1ccc(COC(Cn2ccnc2)c2ccc(Cl)cc2Cl)c(Cl)c1 [Miconazole]
fitness, S. pneumoniae D39V [1], one replicate
Conditions	first compound 0.003875 µg/mL	first compound 0.00775 µg/mL	first compound 0.031 µg/mL	first compound 0.062 µg/mL
partner 1.25 µg/mL	0.936	0.934	0.852	0.731
partner 2.5 µg/mL	0.925	0.964	0.878	0.74
partner 5 µg/mL	0.954	0.96	0.854	0.689

fitness, S. pneumoniae D39V [1]
Conditions	partner 1.073 µg/mL	partner 1.25 µg/mL	partner 2.145 µg/mL	partner 2.5 µg/mL	partner 4.29 µg/mL	partner 5 µg/mL
first compound 0.0155 µg/mL	0.947	0.923	0.96	0.936	0.895	0.911
first compound 0.031 µg/mL	0.937	–	0.95	–	0.912	–
first compound 0.062 µg/mL	0.895	–	0.908	–	0.835	–

Conditions	Bliss interaction score
B. subtilis 168	0.0453
S. aureus DSM 20231	0.0575
S. aureus Newman	-0.0138
S. pneumoniae D39V [2]	0.0669

C[C@H]1c2cccc(O)c2C(=O)C2=C(O)[C@]3(O)C(=O)C(C(N)=O)=C(O)[C@@H](N(C)C)[C@@H]3[C@@H](O)[C@@H]21 [Doxycycline] + Cn1nnc(-c2ccc(-c3ccc(N4C[C@H](CO)OC4=O)cc3F)cn2)n1 [Tedizolid]
fitness, S. pneumoniae D39V [1], one replicate
Conditions	first compound 0.003875 µg/mL	first compound 0.00775 µg/mL	first compound 0.031 µg/mL	first compound 0.062 µg/mL
partner 0.125 µg/mL	0.847	0.848	–	–
partner 0.25 µg/mL	0.765	0.759	0.709	0.56
partner 0.5 µg/mL	0.411	0.438	0.301	0.203

fitness, S. pneumoniae D39V [1]
Conditions	partner 0.03125 µg/mL	partner 0.0625 µg/mL	partner 0.125 µg/mL	partner 0.25 µg/mL	partner 0.5 µg/mL
first compound 0.0155 µg/mL	0.91	0.913	0.832	0.801	0.456
first compound 0.031 µg/mL	0.957	0.9	0.768	–	–
first compound 0.062 µg/mL	0.92	0.905	0.826	–	–

Conditions	Bliss interaction score
B. subtilis 168	-0.0653
S. aureus DSM 20231	-0.0283
S. aureus Newman	-0.0152
S. pneumoniae D39V [2]	0.055

C[C@H]1c2cccc(O)c2C(=O)C2=C(O)[C@]3(O)C(=O)C(C(N)=O)=C(O)[C@@H](N(C)C)[C@@H]3[C@@H](O)[C@@H]21 [Doxycycline] + O=C1CN(/N=C/c2ccc([N+](=O)[O-])o2)C(=O)N1 [Nitrofurantoin]
fitness, S. pneumoniae D39V [1], one replicate
Conditions	first compound 0.003875 µg/mL	first compound 0.00775 µg/mL	first compound 0.0155 µg/mL	first compound 0.031 µg/mL	first compound 0.062 µg/mL
partner 2 µg/mL	≥ 1	0.943	–	0.77	0.68
partner 4 µg/mL	0.993	0.953	–	0.809	0.681
partner 5.14 µg/mL	–	–	0.875	0.894	0.828
partner 8 µg/mL	0.766	0.824	–	0.8	0.741

fitness, S. pneumoniae D39V [1]
Conditions	partner 1.285 µg/mL	partner 2 µg/mL	partner 2.57 µg/mL	partner 4 µg/mL	partner 8 µg/mL
first compound 0.0155 µg/mL	0.899	0.9	0.944	0.898	0.877
first compound 0.031 µg/mL	0.896	–	0.92	–	–
first compound 0.062 µg/mL	0.837	–	0.869	–	–

Conditions	Bliss interaction score
B. subtilis 168	0.0854
S. aureus DSM 20231	-0.0256
S. aureus Newman	-0.0329
S. pneumoniae D39V [2]	0.0703

C[C@@H]1O[C@@H]1P(=O)(O)O [Fosfomycin] + CO[C@H]1/C=C/O[C@@]2(C)Oc3c(C)c(O)c4c(O)c(c(/C=N/N5CCN(C)CC5)c(O)c4c3C2=O)NC(=O)/C(C)=C\C=C\[C@H](C)[C@H](O)[C@@H](C)[C@@H](O)[C@@H](C)[C@H](OC(C)=O)[C@@H]1C [Rifampicin]
fitness, S. pneumoniae D39V [1]
Conditions	first compound 1.25 µg/mL	first compound 2.5 µg/mL	first compound 5 µg/mL
partner 0.025 µg/mL	0.987	0.969	0.806
partner 0.05 µg/mL	0.986	–	–
partner 0.1 µg/mL	–	–	0.318

S. pneumoniae D39V [1], partner 0.2 µg/mL, one replicate
Conditions	fitness
first compound 1.25 µg/mL	0
first compound 2.5 µg/mL	0
first compound 5 µg/mL	0

Conditions	Bliss interaction score
B. subtilis 168	-0.0436
S. aureus DSM 20231	0.036
S. aureus Newman	0.0181
S. pneumoniae D39V [2]	0.0822

C[C@@H]1O[C@@H]1P(=O)(O)O [Fosfomycin] + C[C@@H](O)[C@H]1C(=O)N2C(C(=O)O)=C(SCCNC=N)C[C@H]12 [Imipenem]
fitness, S. pneumoniae D39V [1]
Conditions	partner 0.005 µg/mL	partner 0.0065 µg/mL	partner 0.01 µg/mL	partner 0.013 µg/mL	partner 0.02 µg/mL	partner 0.026 µg/mL
first compound 1.25 µg/mL	0.965	0.922	0.944	0.925	0.92	0.901
first compound 2.5 µg/mL	0.911	0.87	0.887	0.881	0.911	0.814
first compound 5 µg/mL	0.797	0.608	0.786	0.726	0.747	0.74

Conditions	Bliss interaction score
B. subtilis 168	0.0674
S. aureus DSM 20231	-0.0911
S. aureus Newman	0.0199
S. pneumoniae D39V [2]	0.0339

C[C@@H]1O[C@@H]1P(=O)(O)O [Fosfomycin] + Clc1ccc(COC(Cn2ccnc2)c2ccc(Cl)cc2Cl)c(Cl)c1 [Miconazole]
fitness, S. pneumoniae D39V [1]
Conditions	partner 1.073 µg/mL	partner 1.25 µg/mL	partner 2.145 µg/mL	partner 2.5 µg/mL	partner 4.29 µg/mL	partner 5 µg/mL
first compound 1.25 µg/mL	0.988	0.946	0.967	0.946	0.879	0.968
first compound 2.5 µg/mL	0.926	0.905	0.879	0.933	0.789	0.929
first compound 5 µg/mL	0.758	0.769	0.7	0.753	0.678	0.776

Conditions	Bliss interaction score
B. subtilis 168	-0.0714
S. aureus DSM 20231	0.0796
S. aureus Newman	0.103
S. pneumoniae D39V [2]	0.0499

C[C@@H]1O[C@@H]1P(=O)(O)O [Fosfomycin] + O=C1CN(/N=C/c2ccc([N+](=O)[O-])o2)C(=O)N1 [Nitrofurantoin]
fitness, S. pneumoniae D39V [1]
Conditions	partner 1.285 µg/mL	partner 2 µg/mL	partner 2.57 µg/mL	partner 4 µg/mL	partner 8 µg/mL
first compound 1.25 µg/mL	0.96	0.91	0.966	0.871	–
first compound 2.5 µg/mL	0.936	0.879	0.964	0.887	–
first compound 5 µg/mL	0.851	0.778	0.858	0.77	0.627

S. pneumoniae D39V [1], partner 5.14 µg/mL, one replicate
Conditions	fitness
first compound 1.25 µg/mL	0.923
first compound 2.5 µg/mL	0.898
first compound 5 µg/mL	0.866

Conditions	Bliss interaction score
B. subtilis 168	-0.0694
S. aureus DSM 20231	-0.0181
S. aureus Newman	0.0702
S. pneumoniae D39V [2]	0.122

Cc1ncc([N+](=O)[O-])n1CCO [Metronidazole] + CO[C@H]1/C=C/O[C@@]2(C)Oc3c(C)c(O)c4c(O)c(c(/C=N/N5CCN(C)CC5)c(O)c4c3C2=O)NC(=O)/C(C)=C\C=C\[C@H](C)[C@H](O)[C@@H](C)[C@@H](O)[C@@H](C)[C@H](OC(C)=O)[C@@H]1C [Rifampicin]
fitness, S. pneumoniae D39V [1]
Conditions	first compound 1.073 µg/mL	first compound 1.25 µg/mL	first compound 2.145 µg/mL	first compound 2.5 µg/mL	first compound 4.29 µg/mL	first compound 5 µg/mL
partner 0.05 µg/mL	0.881	0.81	0.907	0.83	0.84	0.839
partner 0.1 µg/mL	0.577	–	0.617	–	0.677	–
partner 0.2 µg/mL	0.302	–	0.35	–	–	–

fitness, S. pneumoniae D39V [1], one replicate
Conditions	first compound 1.25 µg/mL	first compound 2.5 µg/mL	first compound 5 µg/mL
partner 0.025 µg/mL	0.897	0.907	0.892
partner 0.2 µg/mL	0	0	0

Conditions	Bliss interaction score
B. subtilis 168	0.0335
S. aureus DSM 20231	-0.0591
S. aureus Newman	0.0408
S. pneumoniae D39V [2]	0.104

Cc1ncc([N+](=O)[O-])n1CCO [Metronidazole] + O=C1CN(/N=C/c2ccc([N+](=O)[O-])o2)C(=O)N1 [Nitrofurantoin]
fitness, S. pneumoniae D39V [1]
Conditions	first compound 1.073 µg/mL	first compound 1.25 µg/mL	first compound 2.145 µg/mL	first compound 2.5 µg/mL	first compound 4.29 µg/mL	first compound 5 µg/mL
partner 1.285 µg/mL	–	0.954	–	0.983	–	0.948
partner 2 µg/mL	0.93	–	0.945	–	0.89	–
partner 2.57 µg/mL	–	0.95	–	0.948	–	0.965
partner 4 µg/mL	0.929	–	0.919	–	0.902	–
partner 8 µg/mL	0.774	–	0.805	–	0.751	–

S. pneumoniae D39V [1], partner 5.14 µg/mL, one replicate
Conditions	fitness
first compound 1.25 µg/mL	0.936
first compound 2.5 µg/mL	0.973
first compound 5 µg/mL	0.989

Conditions	Bliss interaction score
B. subtilis 168	0.0755
S. aureus DSM 20231	0.0482
S. aureus Newman	-0.0503
S. pneumoniae D39V [2]	0.0483

COc1ccc(C[C@H](N)C(=O)N[C@H]2[C@@H](O)[C@H](n3cnc4c(N(C)C)ncnc43)O[C@@H]2CO)cc1 [Puromycin] + CO[C@H]1/C=C/O[C@@]2(C)Oc3c(C)c(O)c4c(O)c(c(/C=N/N5CCN(C)CC5)c(O)c4c3C2=O)NC(=O)/C(C)=C\C=C\[C@H](C)[C@H](O)[C@@H](C)[C@@H](O)[C@@H](C)[C@H](OC(C)=O)[C@@H]1C [Rifampicin]
S. pneumoniae D39V [1], partner 0.025 µg/mL, one replicate
Conditions	fitness
first compound 1 µg/mL	0.914
first compound 2 µg/mL	0.856
first compound 4 µg/mL	0.691

fitness, S. pneumoniae D39V [1]
Conditions	first compound 1 µg/mL	first compound 2 µg/mL	first compound 4 µg/mL
partner 0.05 µg/mL	0.747	0.753	–
partner 0.2 µg/mL	0.135	0.0783	0.0597

Conditions	Bliss interaction score
B. subtilis 168	0.0301
S. aureus DSM 20231	0.0391
S. aureus Newman	0.0233
S. pneumoniae D39V [2]	-0.0708
